Data on 4 molecules can be found in patent publication US20220235088A1 (Memorial Sloan-Kettering Cancer Center, priority 2019, published 2022).

Structures are written as SMILES. ≈ marks a conversion by molar mass, not a printed value. Where “and” joins values, the source holds several entries; their conditions need not be identical. Equal values may be shown once. Entries after “also recorded” stand apart in the source; their conditions may differ.

Assay [1] deals with T1, E. coli MenE (Escherichia coli, UniProt P37353).
T1 construct: His6 (N); made in house; host or cells: E. coli BL21(DE3) pLysS
T1 sequence (P37353 whole entry): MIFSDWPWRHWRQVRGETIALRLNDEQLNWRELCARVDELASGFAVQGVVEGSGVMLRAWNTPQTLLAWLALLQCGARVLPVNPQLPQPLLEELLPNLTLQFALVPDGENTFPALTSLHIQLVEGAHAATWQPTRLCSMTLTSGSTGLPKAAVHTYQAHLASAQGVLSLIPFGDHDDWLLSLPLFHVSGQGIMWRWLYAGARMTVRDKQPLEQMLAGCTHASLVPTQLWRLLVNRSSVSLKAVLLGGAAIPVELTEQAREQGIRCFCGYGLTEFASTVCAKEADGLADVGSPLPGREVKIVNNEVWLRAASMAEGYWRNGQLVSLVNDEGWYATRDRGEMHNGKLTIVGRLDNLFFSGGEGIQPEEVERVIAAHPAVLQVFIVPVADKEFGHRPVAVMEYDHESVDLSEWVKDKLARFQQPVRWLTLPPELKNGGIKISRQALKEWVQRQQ
The assay can be described thus: MenE-MenB coupled enzyme inhibition assay (DHNA-CoA production at 392 nm). Particulars: for IC50: ecMenE 50 nM, OSB 60 μM, ATP 240 μM, CoA 240 μM, pH 7.4; for inhibition of MenE (in words): MenE coupled assay. The format is biochemical. The method, then: Enzyme inhibition studies were performed in 20 mM NaHPO4 buffer (pH 7.4) containing 150 mM NaCl and 1 mM MgCl2 using a […] coupled assay in which MenE is rate-limiting. […] Reactions were initiated by addition of ecMenE (50 nM), and the production of DHNA-CoA was monitored at 392 nm (ε392=4000 M^−1 cm^−1).
With these linker analogues in hand, their inhibition of E. coli MenE using the previously reported MenE-Meng coupled assay was evaluated (Lu, X. et al. Bioorg. Med. Chem. Lett. 2008, 18, 5963). Consistent with predictions from the docking experiments, all but one of the analogues inhibited MenE, albeit with modest IC50 values compared to OSB-AMS (1) (Table 2).

Assay [2] has as its target T2, E. coli MenE(wt) (Escherichia coli, UniProt P37353).
T2 construct: His6 (N); made in house; host or cells: E. coli BL21(DE3) pLysS
The assay can be described thus: Isothermal titration calorimetry, wild-type MenE. The format is binding. The method, then: (§1) ITC was performed using VP-ITC instrument at 22° C. Inhibitor (1 mM) and E. coli MenE(wt) (30 μM) were prepared in 20 mM NaHPO4, pH 7.4 buffer containing 150 mM NaCl and 1 mM MgCl2. From the injection syringe, the inhibitor was titrated into the sample cell containing 1.8 mL solution of MenE. The data were fit to a single-binding site model with the Origin software package.
Next. the binding affinity of the 5 with E. coli MenE was deteremined using isothermal titration calorimetry (ITC).

The target of assay [3] is T3, E. coli MenE (K437A) (Escherichia coli, UniProt P37353, K437A).
T3 construct: His6 (N); made in house; host or cells: E. coli BL21(DE3) pLysS
T3 sequence (P37353 1-451 K437A): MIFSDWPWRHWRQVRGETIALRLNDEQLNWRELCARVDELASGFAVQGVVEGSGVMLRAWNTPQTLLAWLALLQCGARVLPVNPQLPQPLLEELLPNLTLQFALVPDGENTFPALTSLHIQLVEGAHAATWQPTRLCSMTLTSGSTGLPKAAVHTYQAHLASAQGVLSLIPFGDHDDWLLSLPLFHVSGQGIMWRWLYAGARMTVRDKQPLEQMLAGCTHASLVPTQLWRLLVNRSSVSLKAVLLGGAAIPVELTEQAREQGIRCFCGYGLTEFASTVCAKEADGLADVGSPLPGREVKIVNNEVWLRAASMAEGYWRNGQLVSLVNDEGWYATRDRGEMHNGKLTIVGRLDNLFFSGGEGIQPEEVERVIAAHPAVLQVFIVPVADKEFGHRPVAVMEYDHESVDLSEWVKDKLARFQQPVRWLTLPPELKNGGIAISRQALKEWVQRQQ
Nature of the assay: Isothermal titration calorimetry, MenE K437A lynchpin mutant. To be noted: ITC. In kind it is binding. The method, then: Based on the nucleotide sequence of MenE (from E. coli strain K-12), the forward primer with the sequence of 5′-[…]-3′ and T7 reverse primer were designed, synthesized, and used to introduce the K437A mutation in E. coli MenE. High-fidelity Phusion polymerase (New England BioLabs) was used for standard polymerase chain reaction amplification and mutagenesis.
as §1
To probe for these interactions experimentally. the binding affinity of m-phenyl ether analogue 5 to wild-type E. coli MenE and the K437A mutant were compared.
(Isothermal titration calorimetry measures the heat released or taken up as one component is titrated into another.)

In assay [4] the test system is MRSA (ATCC BAA-1762). Particulars: MRSA (ATCC BAA1762); Matarlo et al. Biochemistry 2015; cited from earlier work.

T2 sequence (P37353 whole entry): as the sequence (P37353 whole entry) above

As for `Nc1ncnc2c1ncn2[C@@H]1O[C@H](COc2cccc(CCC(=O)c3ccccc3C(=O)O)c2)[C@@H](O)[C@H]1O` [compound 5], half-maximal inhibition in assay [1] (IC50) required 8.1 ± 0.9 µM. The Kd in assay [2] (ITC, 22° C, wild-type E. coli MenE) was 0.244 µM and 0.249 µM; in assay [3], 0.244 µM.

Regarding `Nc1ncnc2c1ncn2[C@@H]1O[C@H](COS(=O)(=O)NC(=O)CCC(=O)c2ccccc2C(=O)O)[C@@H](O)[C@H]1O` [OSB-AMS (1)], the MIC in assay [4] was 31.25 µg/mL (≈ 56.8 µM).

For the molecule `Nc1ncnc2c1ncn2[C@@H]1O[C@H](COc2ccc(CCC(=O)c3ccccc3C(=O)O)cc2)[C@@H](O)[C@H]1O` [compound 6, 5′-O-([2-(Carboxyl)phenyl]3-(3-hydroxyphenyl)propannyl)adenosine], in assay [1], the “inhibition of MenE (in words)” value was “no inhibition; also recorded: did not inhibit MenE” and the IC50 is over 200 µM. Moreover, the “binding in the ITC assay (in words)” value in assay [2] (E. coli MenE) is recorded as “no binding”.

Regarding `Nc1ncnc2c1ncn2[C@@H]1O[C@H](COc2cc(CCC(=O)c3ccccc3C(=O)O)cc(C(F)(F)F)c2)[C@@H](O)[C@H]1O` [compound 8], in assay [1], the “inhibition of MenE (in words)” value is “slightly weaker inhibition” and it took 26.5 ± 2.3 µM to reach half-maximal inhibition (IC50).

As a reminder, the IC50 is the concentration at which inhibition is half-maximal. Read a high IC50 as weaker potency. One may read the Kd as the constant that tells how readily two partners part at equilibrium. The low end stands for tighter binding, the high end for weaker binding. One may read the MIC as the lowest concentration found to suppress growth.
